Test results as given in patent publication EP4699608A1, “COMPOSITION FOR PREVENTING OR TREATING CANCER PAIN” (Maruishi Pharmaceutical Co., Ltd., priority 2023, dated 2024).

What was measured:
[1] = test system: cancer pain model rats; assay: Pain threshold in cancer pain model rats (MRMT-1 bone metastasis model, Dynamic Plantar Aesthesiometer); format: in vivo; conditions: for cancer pain threshold: single dose, day 11 after MRMT-1 transplantation, plantar surface of right hind paw, compared to control group (Dunnett's test, 1%); for pain threshold-time area under the curve (AUC): up to 24 hours after administration, compared to morphine 3 mg/kg subcutaneous
Protocol: Five-week-old female Crl:CD(SD) SPF rats (Charles River Japan) were injected with MRMT-1 cells (rat breast cancer cells) at 3 × 10^4 cells/20 µL/ body into the medullary cavity at the proximal end of the diaphysis of the right tibia to create a bone metastasis model (day 0). On day 10 after the transplantation of the cancer cells (day 10), the rats were divided into 4 groups of 8 rats each: a control group (with administration of distilled water (trade name: Otsuka Distilled Water) manufactured by Otsuka Pharmaceutical Factory, Inc.), a 10 mg/kg compound A administration group, a 30 mg/kg compound A administration group, and a morphine administration group, as shown in Table 1 below. On day 11 after the transplantation of the cancer cells (day 11), each drug was orally or subcutaneously administered to the rats at a dose of 2 mL/kg. The pain threshold (g) of the plantar surface of the right hind paw was measured using a Dynamic Plantar Aesthesiometer (37450, Ugo Basile) under blinded conditions 1, 3, 6, and 24 hours after the administration. The average value of the pain threshold-time area under the curve (AUC) (g·hr) for 24 hours post-administration was determined for each group.

[2] = test system: mice; assay: Spontaneous locomotor activity (Supermex); format: in vivo; conditions: measured for 30 minutes, 1 or 3 hours after administration, compared to control group
Protocol: Five- to six-week-old male ICR-SPF mice (Japan SLC, Inc.) were divided into 5 groups of 8 mice each: a control group (with administration of distilled water (trade name: Otsuka Distilled Water) manufactured by Otsuka Pharmaceutical Factory, Inc.), two 10 mg/kg compound A administration groups, and two 30 mg/kg compound A administration groups, as shown in Table 2 below. Compound A or distilled water at a dose of 10 mL/kg was orally administered to the mice. One or three hours after the administration of compound A or distilled water, the mice were transferred to a measurement cage, and spontaneous locomotor activity was measured for 30 minutes using Supermex (registered trademark) (Muromachi Kikai Co., Ltd.).

[3] = test system: rats; assay: Coordinated motor ability (rotarod); format: in vivo; conditions: 10 rotations/min, cutoff 180 seconds, compared to control group
Protocol: Five- to six-week-old male SD-SPF rats (Japan SLC, Inc.) were used in this experiment. The experimental schedule included training using a rotarod (SN445, Shinano Seisakusyo) for 3 days (6 times a day), starting from 3 days before the day of administration. On the day of administration, pre-values (time to stay on the rotarod before the administration of compound A or distilled water) were measured twice, and the rats that spent 180 seconds or more on the rotarod in either of the two measurements were selected. The rats were divided into 3 groups of 6 rats each: a control group (with administration of distilled water (trade name: Otsuka Distilled Water) manufactured by Otsuka Pharmaceutical Factory, Inc.), a 10 mg/kg compound A administration group, and a 30 mg/kg compound A administration group, as shown in Table 3 below. Compound A or distilled water was orally administered to the rats at a dose of 10 mL/kg, and the time to stay on the rotarod was measured 1, 3, 6, and 24 hours after the administration under the test conditions of 10 rotations/min with a cutoff of 180 seconds.

[4] = test system: rats; conditions: at a dose lower than that required to exert an analgesic effect; cited from earlier work

Compound: NC1CCN(c2cccc(Cl)n2)CC1 [compound A, 1-(6-chloropyridin-2-yl)piperidin-4-amine]
- cancer pain threshold ([1]; 10 mg/kg oral): significantly increased
- pain threshold-time area under the curve (AUC) ([1]; 10 mg/kg oral): no statistically significant difference
- cancer pain threshold ([1]; 30 mg/kg oral): significantly increased
- pain threshold-time area under the curve (AUC) ([1]; 30 mg/kg oral): no statistically significant difference
- spontaneous locomotor activity (amount of activity) ([2]; 10 mg/kg oral): no significant changes in the amount of activity
- spontaneous locomotor activity (amount of activity) ([2]; 30 mg/kg oral): no significant changes in the amount of activity
- coordinated motor ability (time to stay on the rotarod) ([3]; 10 mg/kg oral, 1, 3, 6 and 24 hours after administration): no significant changes in the coordinated motor ability
- coordinated motor ability (time to stay on the rotarod) ([3]; 30 mg/kg oral, 1, 3, 6 and 24 hours after administration): no significant changes in the coordinated motor ability

Compound: CC(C)C[C@H](CN)CC(=O)O [pregabalin, Pregabalin]
- influences on the central nervous system (coordinated motor ability) [4]: inhibits coordinated motor ability
